From patent US20240415819A1, “MACROCYCLIC COMPOUNDS AS PROTEASOME SUBUNIT BETA TYPE-5 INHIBITORS” (Lead Discovery Center GmbH, priority 2021, published 2024)

Assays:
HT-29 cells = assay: CellTiter-Glo luminescent cell viability assay with HT-29 cells (72h incubation); format: cell-based, human; conditions: Homo sapiens, HT-29, HT29 cells, read-out: CTG HT29
Outline: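 Viability read as CellTiter-Glo luminescence after 72 h compound exposure, with 10 μM staurosporine and DMSO as control wells. Seeding 400 cells per well, compound added 24 h post-plating; IC50 from curve fitting.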

hPMBC = assay: Chymotrypsin-like ProteasomeGlo assay in hPBMC; format: cell-based; conditions: Homo sapiens; read-out: Pglo hPBMC
Outline: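 IC50 derived from luminescent chymotrypsin-like proteasome activity (Suc-LLVY-Glo substrate plus luciferin detection reagent). Measured after 105 min compound exposure at 37 °C, 5% CO2. Cells were human B cells purified from buffy-coat PBMC.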

[1] = molecular target: T1, β5 subunit of the human constitutive proteasome (CPS) (Homo sapiens, UniProt P28074); assay: β5 inhibition assay, human constitutive proteasome (Suc-LLVY-AMC); format: biochemical; conditions: IC50 class, Suc-LLVY-AMC substrate
T1 construct: purchased Boston Biochem E-360
Procedure: The enzymatic activity of the β5 subunit of the human constitutive proteasome (CPS) is analyzed. In another assay, which differs from the assay of the human constitutive proteasome only in using the human immunoproteasome (IPS) the enzymatic activity of the β5 subunit of the human immunoproteasome (IPS) is analyzed. […] Inhibition is indicated as IC50 [nM] (“-”=not measured).

Row | SMILES | IC50 (HT-29 cells) | IC50 (hPMBC) | IC50 [1]
1 | Cc1ccc2cc1CNC(=O)[C@H](CCc1ccccc1)NC(=O)[C@@H](NC(=O)[C@H](C)c1ccccc1)CC(=O)N1CCCC(CCO2)C1 (stereo partly drawn) [Compound 80, (2R)-N-((9S,12S)-5^4-methyl-8,11,14-trioxo-9-phenethyl-4-oxa-7,10-diaza-1(3,1)-piperidina-5(1,3)-benzenacyclotetradecaphane-12-yl)-2-phenylpropanamide] | < 0.1 µM | < 0.1 µM | < 0.1 µM
2 | Cc1ccc2cc1CNC(=O)[C@H](CCc1ccccc1)NC(=O)[C@@H](NC(=O)[C@@H](C)c1ccccc1)CC(=O)N1CCCC(CCO2)C1 (stereo partly drawn) [Compound 81, (2S)-N-((9S,12S)-5^4-methyl-8,11,14-trioxo-9-phenethyl-4-oxa-7,10-diaza-1(3,1)-piperidina-5(1,3)-benzenacyclotetradecaphane-12-yl)-2-phenylpropanamide] | < 0.1 µM | < 0.1 µM | < 0.1 µM
3 | Cc1ccc2cc1CNC(=O)[C@H](CCc1ccccc1)NC(=O)[C@@H](NC(=O)C1CCCc3ccccc31)CC(=O)N1CCCC(CCO2)C1 (stereo partly drawn) [Compound 82, N-((9S,12S)-5^4-methyl-8,11,14-trioxo-9-phenethyl-4-oxa-7,10-diaza-1(3,1)-piperidina-5(1,3)-benzenacyclotetradecaphane-12-yl)-1,2,3,4-tetrahydronaphthalene-1-carboxamide] | < 0.1 µM | < 0.1 µM | < 0.1 µM
4 | COc1ccc(CC(=O)N[C@H]2CC(=O)N3CCCC(CCOc4ccc(C)c(c4)CNC(=O)[C@H](CCc4ccccc4)NC2=O)C3)cc1 (stereo partly drawn) [Compound 83, 2-(4-methoxyphenyl)-N-((9S,12S)-5^4-methyl-8,11,14-trioxo-9-phenethyl-4-oxa-7,10-diaza-1(3,1)-piperidina-5(1,3)-benzenacyclotetradecaphane-12-yl)acetamide] | < 0.1 µM | < 0.1 µM | < 0.1 µM
5 | COc1ccccc1CC(=O)N[C@H]1CC(=O)N2CCCC(CCOc3ccc(C)c(c3)CNC(=O)[C@H](CCc3ccccc3)NC1=O)C2 (stereo partly drawn) [Compound 84, 2-(2-methoxyphenyl)-N-((9S,12S)-5^4-methyl-8,11,14-trioxo-9-phenethyl-4-oxa-7,10-diaza-1(3,1)-piperidina-5(1,3)-benzenacyclotetradecaphane-12-yl)acetamide] | < 0.1 µM | < 0.1 µM | < 0.1 µM
6 | COc1cccc(CC(=O)N[C@H]2CC(=O)N3CCCC(CCOc4ccc(C)c(c4)CNC(=O)[C@H](CCc4ccccc4)NC2=O)C3)c1 (stereo partly drawn) [Compound 85, 2-(3-methoxyphenyl)-N-((9S,12S)-5^4-methyl-8,11,14-trioxo-9-phenethyl-4-oxa-7,10-diaza-1(3,1)-piperidina-5(1,3)-benzenacyclotetradecaphane-12-yl)acetamide] | < 0.1 µM | < 0.1 µM | < 0.1 µM
7 | CO[C@@H](C(=O)N[C@H]1CC(=O)N2CCCC(CCOc3ccc(C)c(c3)CNC(=O)[C@H](CCc3ccccc3)NC1=O)C2)c1ccccc1 (stereo partly drawn) [Compound 86, (2R)-2-methoxy-N-((9S,12S)-5^4-methyl-8,11,14-trioxo-9-phenethyl-4-oxa-7,10-diaza-1(3,1)-piperidina-5(1,3)-benzenacyclotetradecaphane-12-yl)-2-phenylacetamide] | < 0.1 µM | < 0.1 µM | < 0.1 µM
8 | Cc1ccc2cc1CNC(=O)[C@H](CCc1ccccc1)NC(=O)[C@@H](NC(=O)c1cc3cc(C(F)(F)F)ccc3n1C)CC(=O)N1CCCC(CCO2)C1 (stereo partly drawn) [Compound 87, 1-methyl-N-((9S,12S)-5^4-methyl-8,11,14-trioxo-9-phenethyl-4-oxa-7,10-diaza-1(3,1)-piperidina-5(1,3)-benzenacyclotetradecaphane-12-yl)-5-(trifluoromethyl)-1H-indole-2-carboxamide] | < 0.1 µM | < 0.1 µM | < 0.1 µM
9 | Cc1ccc2cc1CNC(=O)[C@H](CCc1ccccc1)NC(=O)[C@@H](NC(=O)CN1CCOCC1)CC(=O)N1CCCC(CCO2)C1 (stereo partly drawn) [Compound 88, N-((9S,12S)-5^4-methyl-8,11,14-trioxo-9-phenethyl-4-oxa-7,10-diaza-1(3,1)-piperidina-5(1,3)-benzenacyclotetradecaphane-12-yl)-2-morpholinoacetamide] | < 0.1 µM | < 0.1 µM | < 0.1 µM
10 | Cc1ccc2cc1CNC(=O)[C@H](CCc1ccccc1)NC(=O)[C@@H](NC(=O)CN1CCCC1)CC(=O)N1CCCC(CCO2)C1 (stereo partly drawn) [Compound 89, N-((9S,12S)-5^4-methyl-8,11,14-trioxo-9-phenethyl-4-oxa-7,10-diaza-1(3,1)-piperidina-5(1,3)-benzenacyclotetradecaphane-12-yl)-2-(pyrrolidin-1-yl)acetamide] | < 0.1 µM | < 0.1 µM | < 0.1 µM
11 | Cc1ccc2cc1CNC(=O)C(c1cnn(C)c1)NC(=O)CCC(=O)N1CCCC(CCO2)C1 (stereo not drawn) [Compound 116, 5^4-methyl-9-(1-methyl-1H-pyrazol-4-yl)-4-oxa-7,10-diaza-1(3,1)-piperidina-5(1,3)-benzenacyclotetradecaphane-8,11,14-trione] | 0.1 to 0.5 µM | 0.5 to 1 µM | > 5 µM
12 | Cc1cc2cc(c1C)CNC(=O)[C@H](Cc1c[nH]c3ccccc13)NC(=O)CCC(=O)N1CCCC(CCO2)C1 (stereo partly drawn) [Compound 120, (9S)-9-((1H-indol-3-yl)methyl)-5^4,5^5-dimethyl-4-oxa-7,10-diaza-1(3,1)-piperidina-5(1,3)-benzenacyclotetradecaphane-8,11,14-trione] | 0.1 to 0.5 µM | 0.1 to 0.5 µM | < 0.1 µM
13 | Cc1ccc2cc1CNC(=O)[C@H](CCc1ccccc1)NC(=O)[C@@H](NC(=O)CN1CCNCC1)CC(=O)N1CCCC(CCO2)C1 (stereo partly drawn) [Compound 126, N-((9S,12S)-5^4-methyl-8,11,14-trioxo-9-phenethyl-4-oxa-7,10-diaza-1(3,1)-piperidina-5(1,3)-benzenacyclotetradecaphane-12-yl)-2-(piperazin-1-yl)acetamide] | 0.1 to 0.5 µM | < 0.1 µM | < 0.1 µM
14 | Cc1ccc2cc1CNC(=O)[C@H](CCc1ccccc1)NC(=O)[C@@H](NC(=O)Cc1cccc(N)c1)CC(=O)N1CCCC(CCO2)C1 (stereo partly drawn) [Compound 127, 2-(3-aminophenyl)-N-((9S,12S)-5^4-methyl-8,11,14-trioxo-9-phenethyl-4-oxa-7,10-diaza-1(3,1)-piperidina-5(1,3)-benzenacyclotetradecaphane-12-yl)acetamide] | < 0.1 µM | < 0.1 µM | < 0.1 µM
15 | Cc1ccc2cc1CNC(=O)[C@H](CCc1ccccc1)NC(=O)[C@@H](NC(=O)Cc1ccc(N)cc1)CC(=O)N1CCCC(CCO2)C1 (stereo partly drawn) [Compound 128, 2-(4-aminophenyl)-N-((9S,12S)-5^4-methyl-8,11,14-trioxo-9-phenethyl-4-oxa-7,10-diaza-1(3,1)-piperidina-5(1,3)-benzenacyclotetradecaphane-12-yl)acetamide] | < 0.1 µM | < 0.1 µM | < 0.1 µM
16 | CNCC(=O)N[C@H]1CC(=O)N2CCCC(CCOc3ccc(C)c(c3)CNC(=O)[C@H](CCc3ccccc3)NC1=O)C2 (stereo partly drawn) [Compound 129, N-((9S,12S)-5^4-methyl-8,11,14-trioxo-9-phenethyl-4-oxa-7,10-diaza-1(3,1)-piperidina-5(1,3)-benzenacyclotetradecaphane-12-yl)-2-(methylamino)acetamide] | < 0.1 µM | < 0.1 µM | < 0.1 µM
